What was measured:
Experiment in all cases: Kinase panel study
Type in all cases: biochemical
AKT3 (PKB gamma) = biological target: T1, AKT3 (PKB gamma) (Homo sapiens, UniProt Q9Y243); conditions: AKT3 (PKB gamma); compound at 10µM; read-out: % of Inhibition
T1 construct: purchased Thermo Fisher Scientific
Summary of the method: (§1)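 Percent inhibition of each kinase by the test compound, given at either 1 µM or 10 µM, came from a contracted panel run by ZLyte or Adapta protocol.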

CSF1R (FMS) = biological target: T2, CSF1R (FMS) (Homo sapiens, UniProt P07333); conditions: CSF1R (FMS); compound at 10µM; read-out: % of Inhibition
T2 construct: purchased Thermo Fisher Scientific
Summary of the method: as §1

DNA-PK = biological target: T3, DNA-PK (Homo sapiens, UniProt P78527); conditions: DNA-PK; compound at 10µM; read-out: % of Inhibition
T3 construct: purchased Thermo Fisher Scientific
Summary of the method: (§2)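 Compounds were tested in vitro against the kinase panel by a service lab. Assays followed standard ZLyte or Adapta protocols. Activity was recorded as % inhibition at 10 µM or 1 µM, with IC50 values where determined.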

DYRK1B = biological target: T4, DYRK1B (Homo sapiens, UniProt Q9Y463); conditions: DYRK1B; compound at 10µM; read-out: % of Inhibition
T4 construct: purchased Thermo Fisher Scientific
Summary of the method: as §1

EGFR (ErbB1) = biological target: T5, EGFR (ErbB1) (Homo sapiens, UniProt P00533); conditions: EGFR (ErbB1); compound at 10µM; read-out: % of Inhibition
T5 construct: purchased Thermo Fisher Scientific
Summary of the method: as §1

FRAP1 (mTOR) = biological target: T6, FRAP1 (mTOR) (Homo sapiens, UniProt P42345); conditions: FRAP1 (mTOR); compound at 10µM; read-out: % of Inhibition
T6 construct: purchased Thermo Fisher Scientific
Summary of the method: as §2

IRAK4 = biological target: T7, IRAK4 (Homo sapiens, UniProt Q9NWZ3); conditions: IRAK4; compound at 10µM; read-out: % of Inhibition
T7 construct: purchased Thermo Fisher Scientific
T7 sequence (Q9NWZ3 1-460): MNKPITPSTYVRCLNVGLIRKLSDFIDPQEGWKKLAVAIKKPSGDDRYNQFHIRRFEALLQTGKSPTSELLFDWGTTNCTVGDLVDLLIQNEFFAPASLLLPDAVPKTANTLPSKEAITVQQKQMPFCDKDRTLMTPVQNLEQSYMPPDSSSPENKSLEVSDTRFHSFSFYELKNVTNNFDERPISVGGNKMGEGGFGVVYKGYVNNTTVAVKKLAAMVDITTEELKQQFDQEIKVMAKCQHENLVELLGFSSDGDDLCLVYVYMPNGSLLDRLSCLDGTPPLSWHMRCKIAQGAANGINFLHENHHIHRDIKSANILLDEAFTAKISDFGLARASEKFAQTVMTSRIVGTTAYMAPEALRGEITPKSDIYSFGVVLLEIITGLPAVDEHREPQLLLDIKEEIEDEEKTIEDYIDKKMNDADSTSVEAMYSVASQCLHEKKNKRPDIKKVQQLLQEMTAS
Summary of the method: as §1

LRRK2 = biological target: T8, LRRK2 (Homo sapiens, UniProt Q5S007); conditions: LRRK2; compound at 10µM; read-out: % of Inhibition
T8 construct: purchased Thermo Fisher Scientific
Summary of the method: as §1

PI4KB (PI4K beta) = biological target: T9, PI4KB (PI4K beta) (Homo sapiens, UniProt Q9UBF8); conditions: PI4KB (PI4K beta); compound at 10µM; read-out: % of Inhibition
T9 construct: purchased Thermo Fisher Scientific
Summary of the method: as §1

[1] = biological target: T10, PIK3CA/PIK3R3 (p11 0 alpha/p55 gamma) (Homo sapiens, UniProt P42336); conditions: PIK3CA/PIK3R3; compound at 10µM; read-out: % of Inhibition
T10 construct: purchased Thermo Fisher Scientific
Summary of the method: as §1

[2] = biological target: T11, PIK3CB/PIK3R1 (p110 beta/p85 alpha) (Homo sapiens, UniProt P42338); conditions: PIK3CB/PIK3R1; compound at 10µM; read-out: % of Inhibition
T11 construct: purchased Thermo Fisher Scientific
Summary of the method: as §1

PIP5K1A = biological target: T12, PIP5K1A (Homo sapiens, UniProt Q99755); conditions: PIP5K1A; compound at 10µM; read-out: % of Inhibition
T12 construct: purchased Thermo Fisher Scientific
Summary of the method: as §1

PRKCN (PKD3) = biological target: T13, PRKCN (PKD3) (Homo sapiens, UniProt O94806); conditions: PRKCN (PKD3); compound at 10µM; read-out: % of Inhibition
T13 construct: purchased Thermo Fisher Scientific
T13 sequence (O94806 1-890): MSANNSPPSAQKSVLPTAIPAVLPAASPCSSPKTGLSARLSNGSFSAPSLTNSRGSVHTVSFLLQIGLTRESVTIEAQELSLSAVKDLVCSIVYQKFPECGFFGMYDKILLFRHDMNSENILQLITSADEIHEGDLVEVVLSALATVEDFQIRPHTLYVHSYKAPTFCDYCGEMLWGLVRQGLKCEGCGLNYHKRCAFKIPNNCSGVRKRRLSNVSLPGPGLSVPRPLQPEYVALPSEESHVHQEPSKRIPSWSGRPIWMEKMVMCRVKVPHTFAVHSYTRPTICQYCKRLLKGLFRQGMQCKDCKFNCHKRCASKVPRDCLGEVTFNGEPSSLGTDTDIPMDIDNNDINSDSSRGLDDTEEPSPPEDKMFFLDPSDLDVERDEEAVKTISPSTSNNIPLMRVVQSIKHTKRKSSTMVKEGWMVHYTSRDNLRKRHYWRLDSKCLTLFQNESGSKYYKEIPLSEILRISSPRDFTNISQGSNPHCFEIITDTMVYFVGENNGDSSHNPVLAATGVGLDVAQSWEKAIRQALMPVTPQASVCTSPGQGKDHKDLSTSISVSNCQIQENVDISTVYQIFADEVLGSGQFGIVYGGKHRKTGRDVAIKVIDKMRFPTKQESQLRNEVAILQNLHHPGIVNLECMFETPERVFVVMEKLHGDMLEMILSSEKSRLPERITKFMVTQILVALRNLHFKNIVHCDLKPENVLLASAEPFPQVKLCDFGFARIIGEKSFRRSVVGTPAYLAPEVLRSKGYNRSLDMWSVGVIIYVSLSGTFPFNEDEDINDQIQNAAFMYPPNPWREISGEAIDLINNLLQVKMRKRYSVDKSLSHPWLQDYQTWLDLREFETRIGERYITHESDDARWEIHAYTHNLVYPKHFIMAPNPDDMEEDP
Summary of the method: as §1

T9 sequence (Q9UBF8 whole entry): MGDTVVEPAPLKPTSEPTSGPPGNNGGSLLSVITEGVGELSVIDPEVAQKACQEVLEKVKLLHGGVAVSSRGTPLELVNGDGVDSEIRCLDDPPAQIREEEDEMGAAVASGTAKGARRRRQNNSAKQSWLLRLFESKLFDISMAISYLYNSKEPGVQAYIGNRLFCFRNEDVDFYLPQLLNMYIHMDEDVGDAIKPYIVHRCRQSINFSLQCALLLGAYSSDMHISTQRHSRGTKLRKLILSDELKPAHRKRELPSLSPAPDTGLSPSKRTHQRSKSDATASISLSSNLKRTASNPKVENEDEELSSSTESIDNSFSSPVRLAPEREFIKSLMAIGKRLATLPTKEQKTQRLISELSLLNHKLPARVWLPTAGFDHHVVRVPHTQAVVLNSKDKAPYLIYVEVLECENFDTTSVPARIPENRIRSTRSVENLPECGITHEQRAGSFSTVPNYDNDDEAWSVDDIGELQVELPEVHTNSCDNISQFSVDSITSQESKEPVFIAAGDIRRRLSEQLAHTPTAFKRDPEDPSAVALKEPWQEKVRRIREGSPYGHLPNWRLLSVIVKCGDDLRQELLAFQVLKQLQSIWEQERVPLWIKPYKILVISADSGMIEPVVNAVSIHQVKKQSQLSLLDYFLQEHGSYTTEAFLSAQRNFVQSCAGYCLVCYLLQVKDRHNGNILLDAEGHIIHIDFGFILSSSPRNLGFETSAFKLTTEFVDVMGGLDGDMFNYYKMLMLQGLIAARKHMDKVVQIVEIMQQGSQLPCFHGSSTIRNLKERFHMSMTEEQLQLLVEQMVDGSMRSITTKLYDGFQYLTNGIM
T11 sequence (P42338 whole entry): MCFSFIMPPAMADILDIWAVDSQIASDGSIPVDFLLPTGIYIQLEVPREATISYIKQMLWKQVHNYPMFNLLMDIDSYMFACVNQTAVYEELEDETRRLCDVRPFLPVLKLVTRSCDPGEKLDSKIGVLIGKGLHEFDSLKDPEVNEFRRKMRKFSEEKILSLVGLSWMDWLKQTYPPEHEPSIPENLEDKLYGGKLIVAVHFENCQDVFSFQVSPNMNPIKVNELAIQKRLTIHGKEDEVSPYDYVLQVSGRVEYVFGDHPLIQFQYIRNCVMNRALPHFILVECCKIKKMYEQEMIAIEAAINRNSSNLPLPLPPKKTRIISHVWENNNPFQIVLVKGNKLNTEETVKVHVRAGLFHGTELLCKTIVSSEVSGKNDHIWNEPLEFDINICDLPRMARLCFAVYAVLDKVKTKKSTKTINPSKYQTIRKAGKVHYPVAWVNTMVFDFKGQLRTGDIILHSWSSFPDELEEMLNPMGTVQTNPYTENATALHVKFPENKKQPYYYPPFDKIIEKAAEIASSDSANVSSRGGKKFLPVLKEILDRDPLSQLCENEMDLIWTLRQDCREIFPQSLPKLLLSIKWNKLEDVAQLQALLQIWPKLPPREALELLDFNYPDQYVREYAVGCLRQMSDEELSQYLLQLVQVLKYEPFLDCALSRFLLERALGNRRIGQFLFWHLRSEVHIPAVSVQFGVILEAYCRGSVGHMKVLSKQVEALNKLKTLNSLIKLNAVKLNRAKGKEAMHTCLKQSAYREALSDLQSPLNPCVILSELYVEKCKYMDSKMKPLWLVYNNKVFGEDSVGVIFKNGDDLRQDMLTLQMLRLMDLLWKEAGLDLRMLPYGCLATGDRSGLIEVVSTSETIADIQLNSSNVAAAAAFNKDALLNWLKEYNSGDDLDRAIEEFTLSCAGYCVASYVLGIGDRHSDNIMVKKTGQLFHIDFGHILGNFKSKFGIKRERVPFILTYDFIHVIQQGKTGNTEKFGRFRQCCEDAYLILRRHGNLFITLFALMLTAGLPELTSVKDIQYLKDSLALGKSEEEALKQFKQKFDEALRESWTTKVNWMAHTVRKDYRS
T11 sequence (P27986 whole entry partner): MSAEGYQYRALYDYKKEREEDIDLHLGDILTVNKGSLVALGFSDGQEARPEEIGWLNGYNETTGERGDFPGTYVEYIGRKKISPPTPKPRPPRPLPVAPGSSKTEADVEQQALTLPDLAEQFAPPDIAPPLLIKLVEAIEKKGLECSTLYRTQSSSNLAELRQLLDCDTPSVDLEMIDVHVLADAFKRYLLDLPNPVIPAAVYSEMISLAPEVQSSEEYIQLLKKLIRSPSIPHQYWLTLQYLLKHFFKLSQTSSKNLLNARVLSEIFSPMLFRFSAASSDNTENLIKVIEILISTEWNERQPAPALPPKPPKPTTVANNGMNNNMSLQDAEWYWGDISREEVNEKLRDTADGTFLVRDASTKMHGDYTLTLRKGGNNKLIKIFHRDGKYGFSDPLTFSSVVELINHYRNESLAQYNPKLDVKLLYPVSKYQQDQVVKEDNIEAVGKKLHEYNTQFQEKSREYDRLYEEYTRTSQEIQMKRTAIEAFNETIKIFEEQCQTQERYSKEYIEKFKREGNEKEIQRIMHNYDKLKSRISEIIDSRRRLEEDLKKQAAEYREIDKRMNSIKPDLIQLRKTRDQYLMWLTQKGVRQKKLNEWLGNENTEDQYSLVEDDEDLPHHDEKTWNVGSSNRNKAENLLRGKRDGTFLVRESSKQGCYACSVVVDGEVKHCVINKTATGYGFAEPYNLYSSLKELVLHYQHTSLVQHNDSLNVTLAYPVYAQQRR
T8 sequence (Q5S007 970-2527 limits assumed): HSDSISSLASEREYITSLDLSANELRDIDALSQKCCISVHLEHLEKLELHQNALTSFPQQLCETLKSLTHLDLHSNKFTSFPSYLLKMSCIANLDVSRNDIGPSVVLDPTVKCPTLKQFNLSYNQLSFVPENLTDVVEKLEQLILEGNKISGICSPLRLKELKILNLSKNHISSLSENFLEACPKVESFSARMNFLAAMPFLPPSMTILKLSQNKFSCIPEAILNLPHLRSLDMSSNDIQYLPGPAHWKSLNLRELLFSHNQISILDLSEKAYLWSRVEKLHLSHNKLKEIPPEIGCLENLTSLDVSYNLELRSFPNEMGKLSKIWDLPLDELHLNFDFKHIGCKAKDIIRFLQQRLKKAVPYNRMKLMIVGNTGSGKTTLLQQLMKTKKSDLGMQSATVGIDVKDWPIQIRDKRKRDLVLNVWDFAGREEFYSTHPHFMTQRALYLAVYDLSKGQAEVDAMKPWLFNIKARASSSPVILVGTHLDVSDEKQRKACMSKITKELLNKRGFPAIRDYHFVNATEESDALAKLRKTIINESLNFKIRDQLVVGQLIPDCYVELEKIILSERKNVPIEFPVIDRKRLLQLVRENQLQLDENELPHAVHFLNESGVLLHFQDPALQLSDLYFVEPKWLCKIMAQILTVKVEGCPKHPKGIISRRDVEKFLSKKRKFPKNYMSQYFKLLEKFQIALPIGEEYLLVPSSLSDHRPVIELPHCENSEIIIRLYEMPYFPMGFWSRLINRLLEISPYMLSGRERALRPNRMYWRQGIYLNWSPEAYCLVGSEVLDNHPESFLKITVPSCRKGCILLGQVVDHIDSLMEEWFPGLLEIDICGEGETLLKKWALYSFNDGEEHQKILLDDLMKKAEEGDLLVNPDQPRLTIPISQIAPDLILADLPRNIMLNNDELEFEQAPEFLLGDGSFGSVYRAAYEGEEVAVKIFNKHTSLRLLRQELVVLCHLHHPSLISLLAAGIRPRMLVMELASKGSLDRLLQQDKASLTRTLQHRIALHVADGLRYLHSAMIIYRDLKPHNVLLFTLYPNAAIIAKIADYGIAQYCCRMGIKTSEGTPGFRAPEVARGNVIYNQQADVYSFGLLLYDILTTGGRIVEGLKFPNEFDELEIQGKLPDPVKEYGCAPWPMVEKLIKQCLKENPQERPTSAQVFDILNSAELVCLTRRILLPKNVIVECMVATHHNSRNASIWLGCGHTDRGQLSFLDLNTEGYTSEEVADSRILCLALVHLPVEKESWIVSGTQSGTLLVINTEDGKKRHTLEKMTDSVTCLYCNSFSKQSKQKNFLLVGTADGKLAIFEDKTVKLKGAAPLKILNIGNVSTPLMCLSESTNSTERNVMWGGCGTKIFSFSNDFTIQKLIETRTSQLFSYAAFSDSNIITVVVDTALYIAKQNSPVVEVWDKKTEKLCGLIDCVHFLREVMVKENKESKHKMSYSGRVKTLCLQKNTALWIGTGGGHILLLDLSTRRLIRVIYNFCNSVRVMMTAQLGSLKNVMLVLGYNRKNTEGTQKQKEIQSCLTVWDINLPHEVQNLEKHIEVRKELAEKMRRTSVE
T2 sequence (P07333 20-972): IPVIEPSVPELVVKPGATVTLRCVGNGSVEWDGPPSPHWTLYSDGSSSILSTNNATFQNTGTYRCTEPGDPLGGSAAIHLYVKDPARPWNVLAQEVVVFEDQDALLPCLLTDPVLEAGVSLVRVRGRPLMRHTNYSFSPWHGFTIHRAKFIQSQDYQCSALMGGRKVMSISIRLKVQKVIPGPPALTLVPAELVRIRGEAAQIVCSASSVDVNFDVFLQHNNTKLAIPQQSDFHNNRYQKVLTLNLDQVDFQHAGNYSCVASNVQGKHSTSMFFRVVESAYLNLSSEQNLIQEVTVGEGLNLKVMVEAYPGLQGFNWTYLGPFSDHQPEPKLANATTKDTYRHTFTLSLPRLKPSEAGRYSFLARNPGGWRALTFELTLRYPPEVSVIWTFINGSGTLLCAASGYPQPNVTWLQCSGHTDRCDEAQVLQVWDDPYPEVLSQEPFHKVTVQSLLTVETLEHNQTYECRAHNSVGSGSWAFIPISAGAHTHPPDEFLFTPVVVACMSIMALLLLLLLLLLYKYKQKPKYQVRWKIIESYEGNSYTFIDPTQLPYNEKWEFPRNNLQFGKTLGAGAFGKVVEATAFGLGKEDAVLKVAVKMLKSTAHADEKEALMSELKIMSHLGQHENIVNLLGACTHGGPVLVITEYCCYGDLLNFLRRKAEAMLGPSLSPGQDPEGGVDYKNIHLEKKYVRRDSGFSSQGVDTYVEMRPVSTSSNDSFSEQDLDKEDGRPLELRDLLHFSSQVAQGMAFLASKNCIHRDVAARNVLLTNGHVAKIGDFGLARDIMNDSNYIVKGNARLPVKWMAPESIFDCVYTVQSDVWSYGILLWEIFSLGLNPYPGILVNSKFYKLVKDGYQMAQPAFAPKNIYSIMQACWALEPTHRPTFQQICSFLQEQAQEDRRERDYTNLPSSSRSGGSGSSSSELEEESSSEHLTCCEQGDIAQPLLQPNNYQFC

Question: How did the inhibition at 10 µM (AKT3 (PKB gamma)) turn out when `COc1ccc2nc3c(cc2c1)c(N)nn3C(=O)c1cccc(N(C)C)c1` [MW05-E2, 1-[3-(dimethylamino)benzoyl]-6-methoxy-1H-pyrazolo[3,4-b]quinolin-3-amine] was run?
Answer: 11%

Question: And the inhibition at 10 µM (CSF1R (FMS))?
Answer: 20%

Question: What about the inhibition at 10 µM (DNA-PK) of the same compound?
Answer: 16%

Question: And the inhibition at 10 µM (DYRK1B)?
Answer: 84%

Question: And the inhibition at 10 µM (EGFR (ErbB1))?
Answer: 33%

Question: What about the inhibition at 10 µM (FRAP1 (mTOR)) of the same compound?
Answer: 5%

Question: And the inhibition at 10 µM (IRAK4)?
Answer: -3%

Question: What about the inhibition at 10 µM (LRRK2) of the same compound?
Answer: 8%

Question: And the inhibition at 10 µM (PI4KB (PI4K beta))?
Answer: 9%

Question: What about the inhibition at 10 µM [1] of the same compound?
Answer: 8%

Question: What about the inhibition at 10 µM [2] of the same compound?
Answer: 1%

Question: And the inhibition at 10 µM (PIP5K1A)?
Answer: -9%

Question: And the inhibition at 10 µM (PRKCN (PKD3))?
Answer: 7%
